Results: patent US9238619B2, “Phenalkylamine derivatives, pharmaceutical compositions containing them, and their use in therapy” (AbbVie Deutschland GmbH & Co. KG, priority 2010, dated 2016)
Where a name gives a salt, the structure may show the parent alone.

Molecular target: human GlyT1c transporter (Homo sapiens (Human), UniProt P48067)
Assay: Radioligand binding assays using recombinant CHO cell membranes expressing human GlyT1
Settings: read-out: radioligand binding Kiapp
Protocol: Radioligand binding to human GlyT1c transporter-expressing membranes was determined as described in Mezler et al., Molecular Pharmacology 74:1705-1715, 2008.

Chain of human GlyT1c transporter (P48067 whole entry): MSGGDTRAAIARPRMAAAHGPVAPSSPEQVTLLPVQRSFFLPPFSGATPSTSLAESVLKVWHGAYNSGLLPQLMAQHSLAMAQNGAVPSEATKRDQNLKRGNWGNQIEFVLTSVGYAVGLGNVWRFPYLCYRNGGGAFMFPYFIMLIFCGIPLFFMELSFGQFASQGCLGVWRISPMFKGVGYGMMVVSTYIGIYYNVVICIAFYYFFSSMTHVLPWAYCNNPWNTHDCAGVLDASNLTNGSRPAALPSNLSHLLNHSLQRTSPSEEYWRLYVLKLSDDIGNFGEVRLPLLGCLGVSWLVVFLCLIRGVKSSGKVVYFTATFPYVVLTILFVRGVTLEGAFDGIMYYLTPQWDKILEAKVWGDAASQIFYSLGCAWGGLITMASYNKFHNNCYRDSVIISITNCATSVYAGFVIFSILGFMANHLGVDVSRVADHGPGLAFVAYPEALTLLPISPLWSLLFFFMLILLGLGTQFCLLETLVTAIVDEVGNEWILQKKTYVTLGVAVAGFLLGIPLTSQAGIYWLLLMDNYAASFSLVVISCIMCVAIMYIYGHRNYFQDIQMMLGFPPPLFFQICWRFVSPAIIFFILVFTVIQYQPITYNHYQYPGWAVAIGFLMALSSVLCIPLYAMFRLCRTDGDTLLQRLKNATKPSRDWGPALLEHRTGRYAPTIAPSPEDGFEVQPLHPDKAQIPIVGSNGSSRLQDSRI

SMILES | Ki [µM]
Cn1cc(S(=O)(=O)NCCOc2cccc(C(CN)Cc3cccc(Cl)c3)c2)cn1 (stereo not drawn) [Example 2, 1-Methyl-1H-pyrazole-4-sulfonic acid (2-{3-[2-amino-1-(3-chloro-benzyl)ethyl]-phenoxy}-ethyl)-amide, hydrochloride] | ≤ 1
Cn1cc(S(=O)(=O)NCCOc2cc(C(CN)Cc3ccccc3)ccc2F)cn1 (stereo not drawn) [Example 3, 1-Methyl-1H-pyrazole-4-sulfonic acid {2-[5-(2-amino-1-benzyl-ethyl)-2-fluoro-phenoxy]-ethyl}-amide, hydrochloride] | ≤ 0.1
Cn1cc(S(=O)(=O)NCCOc2cccc(C(CN)Cc3ccccc3)c2)cn1 (stereo not drawn) [Example 6, 1-Methyl-1H-pyrazole-4-sulfonic acid {2-[3-(2-amino-1-benzyl-ethyl)-phenoxy]-ethyl}-amide, hydrochloride] | ≤ 0.1
Cn1cc(S(=O)(=O)NCCOc2cccc(C(CN)Cc3cc(F)cc(F)c3)c2)cn1 (stereo not drawn) [Example 7, 1-Methyl-1H-pyrazole-4-sulfonic acid (2-{3-[2-amino-1-(3,5-difluoro-benzyl)ethyl]-phenoxy}-ethyl)-amide, hydrochloride] | ≤ 1
Cn1cc(S(=O)(=O)NCCOc2cccc(C(CN)Cc3ccc(Cl)cc3)c2)cn1 (stereo not drawn) [Example 8, 1-Methyl-1H-pyrazole-4-sulfonic acid (2-{3-[2-amino-1-(4-chloro-benzyl)ethyl]-phenoxy}-ethyl)-amide, hydrochloride] | ≤ 1
Cn1cc(S(=O)(=O)NCCOc2cccc(C(CN)Cc3cccc(C(F)(F)F)c3)c2)cn1 (stereo not drawn) [Example 10, 1-Methyl-1H-pyrazole-4-sulfonic acid (2-{3-[2-amino-1-(3-trifluoromethylbenzyl)-ethyl]-phenoxy}-ethyl)-amide, hydrochloride] | ≤ 0.1
Cn1cnc(S(=O)(=O)NCCOc2cccc(C(CN)Cc3cc(F)cc(F)c3)c2)c1 (stereo not drawn) [Example 11, 1-Methyl-1H-imidazole-4-sulfonic acid (2-{3-[2-amino-1-(3,5-difluoro-benzyl)ethyl]-phenoxy}-ethyl)-amide, hydrochloride] | ≤ 1
Cn1cnc(S(=O)(=O)NCCOc2cccc(C(CN)Cc3cccc(C(F)(F)F)c3)c2)c1 (stereo not drawn) [Example 12, 1-Methyl-1H-imidazole-4-sulfonic acid (2-{3-[2-amino-1-(3-trifluoromethylbenzyl)-ethyl]-phenoxy}-ethyl)-amide, hydrochloride] | ≤ 0.1
NCC(Cc1ccccc1)c1cccc(CNS(=O)(=O)CC2CC2)c1 (stereo not drawn) [Example 14, N-[3-(2-Amino-1-benzyl-ethyl)-benzyl]-C-cyclopropyl-methanesulfonamide] | ≤ 10
O=S(=O)(CC1CC1)NCc1cccc(C(Cc2ccccc2)CN2CCOCC2)c1 (stereo not drawn) [Example 22, N-[3-(1-Benzyl-2-morpholin-4-yl-ethyl)-benzyl]-C-cyclopropyl-methanesulfonamide, hydrochloride] | ≤ 10
CN(C)CC(Cc1ccccc1)c1cccc(OCCNS(=O)(=O)c2cnn(C)c2)c1 (stereo not drawn) [Example 24, 1-Methyl-1H-pyrazole-4-sulfonic acid {2-[3-(1-benzyl-2-dimethylamino-ethyl)phenoxy]-ethyl}-amide] | ≤ 0.1
CN(C)CC(Cc1cccc(C(F)(F)F)c1)c1cccc(OCCNS(=O)(=O)c2cnn(C)c2)c1 (stereo not drawn) [Example 28, 1-Methyl-1H-pyrazole-4-sulfonic acid (2-{3-[2-dimethylamino-1-(3-trifluoromethyl-benzyl)-ethyl]-phenoxy}-ethyl)-amide] | ≤ 0.1

Second part, the compound after the results:

Ki [µM] | SMILES
≤ 1 | Cn1cnc(S(=O)(=O)NCCOc2ccc(F)c(C(CN)Cc3ccccc3)c2)c1 (stereo not drawn) [Example 1, 1-Methyl-1H-imidazole-4-sulfonic acid {2-[3-(2-amino-1-benzyl-ethyl)-4-fluoro-phenoxy]-ethyl}-amide hydrochloride]
≤ 0.1 | Cn1cnc(S(=O)(=O)NCCOc2cc(C(CN)Cc3ccccc3)ccc2F)c1 (stereo not drawn) [Example 4, 1-Methyl-1H-imidazole-4-sulfonic acid {2-[5-(2-amino-1-benzyl-ethyl)-2-fluoro-phenoxy]-ethyl}-amide, hydrochloride]
≤ 0.1 | Cn1cnc(S(=O)(=O)NCCOc2cccc(C(CN)Cc3ccccc3)c2)c1 (stereo not drawn) [Example 5, 1-Methyl-1H-imidazole-4-sulfonic acid {2-[3-(2-amino-1-benzyl-ethyl)phenoxy]-ethyl}-amide]
≤ 1 | Cn1cnc(S(=O)(=O)NCCOc2cccc(C(CN)Cc3cccc(Cl)c3)c2)c1 (stereo not drawn) [Example 9, 1-Methyl-1H-imidazole-4-sulfonic acid (2-{3-[2-amino-1-(3-chloro-benzyl)ethyl]-phenoxy}-ethyl)-amide, hydrochloride]
≤ 10 | Cn1cc(S(=O)(=O)NCc2cccc(C(Cc3ccccc3)C(N)=O)c2)cn1 (stereo not drawn) [Example 15, 2-{3-[(1-Methyl-1H-pyrazole-4-sulfonylamino)-methyl]-phenyl}-3-phenyl-propionamide]
≤ 10 | Cn1cnc(S(=O)(=O)NCc2cccc(C(Cc3ccccc3)C(N)=O)c2)c1 (stereo not drawn) [Example 16, 2-{3-[(1-Methyl-1H-imidazole-4-sulfonylamino)-methyl]-phenyl}-3-phenyl-propionamide]
≤ 10 | Cn1cnc(S(=O)(=O)NCc2cccc(C(Cc3ccccc3)C(=O)N3CCOCC3)c2)c1 (stereo not drawn) [Example 17, 1-Methyl-1H-imidazole-4-sulfonic acid 3-(1-benzyl-2-morpholin-4-yl-2-oxo-ethyl)-benzylamide]
≤ 0.1 | Cn1cc(S(=O)(=O)NCc2cccc(C(CN)Cc3ccccc3)c2)cn1 (stereo not drawn) [Example 18, 1-Methyl-1H-pyrazole-4-sulfonic acid 3-(2-amino-1-benzyl-ethyl)benzylamide, hydrochloride]
≤ 1 | Cn1cnc(S(=O)(=O)NCc2cccc(C(CN)Cc3ccccc3)c2)c1 (stereo not drawn) [Example 19, 1-Methyl-1H-imidazole-4-sulfonic acid 3-(2-amino-1-benzyl-ethyl)benzylamide, hydrochloride]
≤ 10 | Cn1cnc(S(=O)(=O)NCc2cccc(C(Cc3ccccc3)CN3CCOCC3)c2)c1 (stereo not drawn) [Example 20, 1-Methyl-1H-imidazole-4-sulfonic acid 3-(1-benzyl-2-morpholin-4-yl-ethyl)benzylamide]
≤ 1 | Cn1cc(S(=O)(=O)NCc2cccc(C(Cc3ccccc3)CN3CCOCC3)c2)cn1 (stereo not drawn) [Example 21, 1-Methyl-1H-pyrazole-4-sulfonic acid 3-(1-benzyl-2-morpholin-4-yl-ethyl)benzylamide]
≤ 0.1 | CN(C)CC(Cc1ccccc1)c1cc(OCCNS(=O)(=O)c2cn(C)cn2)ccc1F (stereo not drawn) [Example 23, 1-Methyl-1H-imidazole-4-sulfonic acid {2-[3-(1-benzyl-2-dimethylamino-ethyl)-4-fluoro-phenoxy]-ethyl}-amide]
≤ 1 | CN(C)CC(Cc1ccccc1)c1cccc(OCCNS(=O)(=O)c2cn(C)cn2)c1 (stereo not drawn) [Example 25, 1-Methyl-1H-imidazole-4-sulfonic acid {2-[3-(1-benzyl-2-dimethylaminoethyl)-phenoxy]-ethyl}-amide]
≤ 1 | CN(C)CC(Cc1ccccc1)c1cccc(CNS(=O)(=O)c2cn(C)cn2)c1 (stereo not drawn) [Example 26, 1-Methyl-1H-imidazole-4-sulfonic acid 3-(1-benzyl-2-dimethylamino-ethyl)benzylamide]
≤ 1 | CN(C)CC(Cc1ccccc1)c1cccc(CNS(=O)(=O)c2cnn(C)c2)c1 (stereo not drawn) [Example 27, 1-Methyl-1H-pyrazole-4-sulfonic acid 3-(1-benzyl-2-dimethylamino-ethyl)benzylamide]
